From article PMC4870705, “Topical Delivery of Protein and Peptide Using Novel Cell Penetrating Peptide IMT-P8” (Scientific Reports, 2016) come the findings set out here.

Entries after “also recorded” stand apart in the source; their conditions may differ.

Series [1] deals with HeLa cells. In words: Confocal laser scanning microscopy, intracellular localization in live cells. To be noted: FITC-labeled peptide 2.5 μM, 30 min, 37 °C.
Method: Cells were washed with PBS thrice and live cells were imaged. Scale bars are 10 μm.
Cells were not fixed to avoid artifactual localization of the internalized peptide. At the end of the incubation period, culture medium was removed, and coverslips were washed thoroughly with PBS for 3–5 minutes (thrice) and mounted on glass slides with the antifade reagent.
Thereafter, cells were washed with PBS thrice and immediately examined using the confocal microscope.
In series [2] the test system is HeLa cells. Put plainly: Cell viability assay (MTT). Format: cell-based, human. The following applies: 24 h, serum containing medium; for Cell viability (MTT): HeLa, unlabeled peptide 0, 5, 10 and 20 μM, 37 °C. As for the experimental part:
(§1) Figure 3 Cell viability assay. (A) HeLa, (B) PC3 and (C) MDA-MB-231 cells were incubated with increasing concentrations (5, 10, and 20 μM) of peptides in serum containing medium at 37 °C for 24 h. Cell viability was measured by MTT assay. Viability of only cells (without peptide) was taken as 100% and viabilities of cells treated with increasing concentration of peptides were plotted as percentage of control.
(§2) Cell viability was determined by MTT assay. Briefly, cells (HeLa, PC3 and MDA-MB-231) were seeded at a density of 5 × 10^3 cells/well in 96-well microtiter plates in medium supplemented with 10% FBS 24 h before the start of the experiment. Cells were incubated with different concentrations (5, 10, and 20 μM, respectively) of unlabeled peptides for 24 h. […] At the end of the incubation period, cell growth was assayed by the addition of 20 μl of MTT (5 mg/mL; Sigma-Aldrich) to each well, and plate was incubated at 37 °C for 4 h. Later, the medium was removed carefully, 200 μl DMSO was added and mixed, and the absorbance was read at 570 nm with a microplate reader (Bio-Rad). The survival of cells relative to the control (cells incubated with growth medium containing no peptide) was calculated by taking the ratio of the absorbance at 570 nm values. All the experiments were performed in triplicates.

Series [3] has as its system PC3 cells. Put plainly: Cell viability assay (MTT). The following applies: unlabeled peptide 5, 10 and 20 μM, 24 h, serum containing medium. Format: cell-based, human. The method, then: as §1, §2
Series [4] deals with MDA-MB-231 cells. Put plainly: Cell viability assay (MTT). Type of series: cell-based, human. To be noted: unlabeled peptide 5, 10 and 20 μM, 24 h, serum containing medium. The method, then:
as §1, §2

In the case of “KLAKLAKKLAKLAK [small cationic amphipathic mitochondrial membrane-disrupting pro-apoptotic peptide, 14 aa, used as cargo, reference compound]”, the “Internalization / fluorescence in cells by CLSM” value in series [1] is given as “no fluorescence”. In addition, the “Cell viability (MTT)” value in series [2] is listed as “not effective at any concentration tested”.
On to “KLAKLAKKLAKLAKRRWRRWNRFNRRRCR [IMT-P8-KLA, fusion peptide of KLA and IMT-P8, 29 aa]”, for which the figures for the “Cell viability (MTT)” value in series [3], in series [4] and in series [2] were “dose-dependent decrease in cell viability”, “dose-dependent decrease in cell viability” and “dose-dependent decrease in cell viability; also recorded: caused significant cell death”, respectively. Besides, in series [2] (unlabeled peptide 20 μM, HeLa (text says all cell lines examined)), the “Cell viability (MTT) at 20 μM” value is listed as “significant decrease in cell viability”.
“RRWRRWNRFNRRRCR [IMT-P8, novel human protein-derived arginine-rich cell-penetrating peptide (Institute of Microbial Technology-Peptide 8), 15 aa]”: the “Cell viability (MTT)” value in series [2] is on record as “not effective at any concentration tested”.
